Measurements as given in the supplement of paper PMC10627819.

Key:
[1] = test system: S. aureus Newman; assay: fitness (endpoint OD595 vs no drug) (fraction); higher = more growth
Method in brief: (§1)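 Fitness expresses the optical density reached at the stationary-phase transition as a fraction of the robust mean of no-drug control wells. It is capped at 1. Measurements were OD595 every 30 min for 14 h at 37 °C after inoculation of 384-well plates at OD595 0.01 (30 µl, or 55 µl for S. pneumoniae), minus the first reading.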

[2] = test system: S. pneumoniae D39V; assay: as above
Method in brief: as §1

[3] = test system: B. subtilis 168; assay: as above
Method in brief: as §1

[4] = test system: S. aureus DSM 20231; assay: as above
Method in brief: as §1

[5] = test system: S. aureus Newman; assay: Bliss interaction score (quartile over a dose matrix) (fitness difference); higher = more antagonism (negative = synergy)
Method in brief: (§2)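 Each plate was normalised to the robust mean of its own no-drug wells, using OD595 at entry into stationary phase, with values capped at 1. This normalised growth is the fitness value. The Bliss score is the difference between observed and product-expected fitness, with single-drug fitness inferred from the combination data and quartiles taken over technical, biological and donor/recipient replicates.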

[6] = test system: S. pneumoniae D39V; assay: as above
Method in brief: as §2

[7] = test system: B. subtilis 168; assay: as above
Method in brief: as §2

[8] = test system: S. aureus DSM 20231; assay: as above
Method in brief: as §2
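For Bliss interaction score (quartile over a dose matrix) in this document: first quartile when negative (synergy) and third quartile when positive (antagonism).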

O=C(O[C@@H]1Cc2c(O)cc(O)cc2O[C@@H]1c1cc(O)c(O)c(O)c1)c1cc(O)c(O)c(O)c1 [EGCG] + Cc1cc(NS(=O)(=O)c2ccc(N)cc2)no1 [Sulfamethoxazol]
fitness
Settings	partner 1 µg/mL	partner 2 µg/mL	partner 4 µg/mL
[1], first compound 12.5 µg/mL	0.806	0.806	0.786
[1], first compound 25 µg/mL	0.764	0.801	0.779
[1], first compound 50 µg/mL	0.685	0.783	0.772
[2], first compound 12.5 µg/mL	0.934	0.905	0.965
[2], first compound 25 µg/mL	0.941	0.966	0.905
[2], first compound 50 µg/mL	0.951	≥ 1	0.725
[3], first compound 6.25 µg/mL	0.881	0.815	0.901
[3], first compound 25 µg/mL	–	0.299	0.341
[4], first compound 12.5 µg/mL	0.841	0.863	0.854
[4], first compound 25 µg/mL	0.769	0.842	0.833
[4], first compound 50 µg/mL	0.75	0.733	0.795

fitness, one replicate
Settings	first compound 6.25 µg/mL	first compound 12.5 µg/mL	first compound 25 µg/mL	first compound 50 µg/mL
[1], partner 8 µg/mL	–	0.712	0.703	0.675
[3], partner 0.5 µg/mL	0.831	0.551	0.271	–

Settings	Bliss interaction score
[5]	0.0456
[6]	0.0423
[7]	-0.0762
[8]	0.071

O=C(O[C@@H]1Cc2c(O)cc(O)cc2O[C@@H]1c1cc(O)c(O)c(O)c1)c1cc(O)c(O)c(O)c1 [EGCG] + Cc1ncc([N+](=O)[O-])n1CCO [Metronidazole]
fitness
Settings	partner 0.625 µg/mL	partner 1.073 µg/mL	partner 1.25 µg/mL	partner 2.145 µg/mL	partner 2.5 µg/mL	partner 4.29 µg/mL	partner 5 µg/mL
[1], first compound 12.5 µg/mL	0.833	–	0.847	–	0.809	–	–
[1], first compound 25 µg/mL	0.833	–	0.807	–	0.785	–	–
[1], first compound 50 µg/mL	0.769	–	0.747	–	0.736	–	–
[2], first compound 12.5 µg/mL	–	0.888	0.956	0.493	0.982	0.825	0.976
[2], first compound 25 µg/mL	–	0.839	0.979	–	≥ 1	–	0.984
[2], first compound 50 µg/mL	–	0.803	0.813	0.391	0.949	0.602	0.907
[3], first compound 6.25 µg/mL	0.969	–	0.944	–	0.928	–	–
[4], first compound 12.5 µg/mL	0.853	–	0.787	–	0.795	–	–
[4], first compound 25 µg/mL	0.792	–	0.807	–	0.838	–	–
[4], first compound 50 µg/mL	0.779	–	0.753	–	0.841	–	–

fitness, [1], one replicate
Settings	first compound 12.5 µg/mL	first compound 25 µg/mL	first compound 50 µg/mL
partner 0.781 µg/mL	0.781	0.807	0.943
partner 1.562 µg/mL	0.8	0.833	≥ 1
partner 3.124 µg/mL	0.782	0.81	0.963

Settings	Bliss interaction score
[5]	0.0648
[6]	-0.0826
[7]	-0.039
[8]	-0.112

O=C(O[C@@H]1Cc2c(O)cc(O)cc2O[C@@H]1c1cc(O)c(O)c(O)c1)c1cc(O)c(O)c(O)c1 [EGCG] + Cc1onc(-c2ccccc2)c1C(=O)N[C@@H]1C(=O)N2[C@@H]1SC(C)(C)[C@@H]2C(=O)O [Oxacillin]
fitness
Settings	first compound 6.25 µg/mL	first compound 12.5 µg/mL	first compound 25 µg/mL	first compound 50 µg/mL
[1], partner 0.0156 µg/mL	–	0.591	0.605	–
[1], partner 0.0312 µg/mL	–	0.624	0.681	–
[1], partner 0.0625 µg/mL	–	0.59	0.636	–
[2], partner 0.005 µg/mL	–	0.989	0.973	≥ 1
[2], partner 0.01 µg/mL	–	0.924	0.903	0.966
[2], partner 0.02 µg/mL	–	0.929	0.947	0.923
[2], partner 0.04 µg/mL	–	0.474	0.576	0.632
[3], partner 0.002 µg/mL	0.935	–	0.202	–
[3], partner 0.004 µg/mL	0.924	0.538	0.205	–
[3], partner 0.008 µg/mL	0.898	0.525	0.186	–
[4], partner 0.0156 µg/mL	–	0.645	0.582	0.62
[4], partner 0.0312 µg/mL	–	0.498	0.548	–
[4], partner 0.0625 µg/mL	–	0.442	0.393	0.34

fitness, [3], one replicate
Settings	partner 0.0078 µg/mL	partner 0.0155 µg/mL	partner 0.031 µg/mL	partner 0.075 µg/mL	partner 0.15 µg/mL	partner 0.3 µg/mL
first compound 6.25 µg/mL	0.998	0.978	0.972	0.515	0.0556	0.0544
first compound 12.5 µg/mL	0.858	0.852	0.792	0.444	0.0247	0.0417
first compound 25 µg/mL	0.602	0.559	0.434	0.139	0.0233	0.024

Settings	Bliss interaction score
[5]	0.0991
[6]	0.0942
[7]	-0.0648
[8]	-0.0707

COc1c(N2C[C@@H]3CCCN[C@@H]3C2)c(F)cc2c(=O)c(C(=O)O)cn(C3CC3)c12 [Moxifloxacin] + CC1=C\[C@@H](O)CC(=O)Cc2nc(co2)C(=O)N2CCC=C2C(=O)O[C@H](C(C)C)[C@H](C)/C=C/C(=O)NC\C=C\1 [Virginiamycin M1]
Settings	fitness
[1], first compound 0.0075 µg/mL, partner 0.0625 µg/mL	0.764
[1], first compound 0.0075 µg/mL, partner 0.125 µg/mL	0.762
[1], first compound 0.0075 µg/mL, partner 0.25 µg/mL	0.795
[1], first compound 0.015 µg/mL, partner 0.0625 µg/mL	0.545
[1], first compound 0.015 µg/mL, partner 0.125 µg/mL	0.556
[1], first compound 0.015 µg/mL, partner 0.25 µg/mL	0.517
[1], first compound 0.03 µg/mL, partner 0.0625 µg/mL	0.0697
[1], first compound 0.03 µg/mL, partner 0.125 µg/mL	0.0796
[1], first compound 0.03 µg/mL, partner 0.25 µg/mL	0.0787
[2], first compound 0.0037 µg/mL, partner 2 µg/mL	0.802
[2], first compound 0.005 µg/mL, partner 0.5 µg/mL	0.999
[2], first compound 0.005 µg/mL, partner 1 µg/mL	≥ 1
[2], first compound 0.005 µg/mL, partner 2 µg/mL	0.99
[2], first compound 0.0075 µg/mL, partner 2 µg/mL	0.869
[2], first compound 0.01 µg/mL, partner 0.5 µg/mL	≥ 1
[2], first compound 0.01 µg/mL, partner 1 µg/mL	0.992
[2], first compound 0.01 µg/mL, partner 2 µg/mL	0.979
[2], first compound 0.015 µg/mL, partner 2 µg/mL	0.811
[2], first compound 0.02 µg/mL, partner 0.5 µg/mL	0.981
[2], first compound 0.02 µg/mL, partner 1 µg/mL	0.995
[2], first compound 0.02 µg/mL, partner 2 µg/mL	0.963
[3], first compound 0.0312 µg/mL, partner 0.0625 µg/mL	0.0441
[3], first compound 0.0312 µg/mL, partner 0.125 µg/mL	0.0556
[3], first compound 0.0312 µg/mL, partner 0.25 µg/mL	0.0499
[3], first compound 0.0625 µg/mL, partner 0.0625 µg/mL	0.0365
[3], first compound 0.0625 µg/mL, partner 0.125 µg/mL	0.0573
[3], first compound 0.0625 µg/mL, partner 0.25 µg/mL	0.0434
[3], first compound 0.125 µg/mL, partner 0.0625 µg/mL	0.044
[3], first compound 0.125 µg/mL, partner 0.125 µg/mL	0.0517
[3], first compound 0.125 µg/mL, partner 0.25 µg/mL	0.0468
[3], first compound 2 µg/mL, partner 0.0625 µg/mL	0.0224
[3], first compound 2 µg/mL, partner 0.125 µg/mL	0.0234
[3], first compound 2 µg/mL, partner 0.25 µg/mL	0.0324
[3], first compound 4 µg/mL, partner 0.0625 µg/mL	0.0209
[3], first compound 4 µg/mL, partner 0.125 µg/mL	0.0242
[3], first compound 4 µg/mL, partner 0.25 µg/mL	0.0192
[3], first compound 8 µg/mL, partner 0.0625 µg/mL	0.0121
[3], first compound 8 µg/mL, partner 0.125 µg/mL	0.0128
[3], first compound 8 µg/mL, partner 0.25 µg/mL	0.0206
[4], first compound 0.0075 µg/mL, partner 0.0625 µg/mL	0.812
[4], first compound 0.0075 µg/mL, partner 0.125 µg/mL	0.901
[4], first compound 0.0075 µg/mL, partner 0.25 µg/mL	0.81
[4], first compound 0.015 µg/mL, partner 0.0625 µg/mL	0.702
[4], first compound 0.015 µg/mL, partner 0.125 µg/mL	0.72
[4], first compound 0.015 µg/mL, partner 0.25 µg/mL	0.776
[4], first compound 0.03 µg/mL, partner 0.0625 µg/mL	0.609
[4], first compound 0.03 µg/mL, partner 0.125 µg/mL	0.67
[4], first compound 0.03 µg/mL, partner 0.25 µg/mL	0.662

one replicate
Settings	fitness
[1], first compound 0.0075 µg/mL, partner 0.5 µg/mL	0.659
[1], first compound 0.0075 µg/mL, partner 1 µg/mL	0.758
[1], first compound 0.0075 µg/mL, partner 2 µg/mL	0.665
[1], first compound 0.015 µg/mL, partner 0.5 µg/mL	0.654
[1], first compound 0.015 µg/mL, partner 1 µg/mL	0.643
[1], first compound 0.015 µg/mL, partner 2 µg/mL	0.579
[1], first compound 0.03 µg/mL, partner 0.5 µg/mL	0.465
[1], first compound 0.03 µg/mL, partner 1 µg/mL	0.414
[1], first compound 0.03 µg/mL, partner 2 µg/mL	0.323
[2], first compound 0.0037 µg/mL, partner 0.15 µg/mL	0.808
[2], first compound 0.0037 µg/mL, partner 0.3 µg/mL	0.758
[2], first compound 0.0037 µg/mL, partner 0.5 µg/mL	0.97
[2], first compound 0.0037 µg/mL, partner 1 µg/mL	0.95
[2], first compound 0.0075 µg/mL, partner 0.15 µg/mL	0.911
[2], first compound 0.0075 µg/mL, partner 0.3 µg/mL	0.877
[2], first compound 0.0075 µg/mL, partner 0.5 µg/mL	0.965
[2], first compound 0.0075 µg/mL, partner 1 µg/mL	0.934
[2], first compound 0.015 µg/mL, partner 0.15 µg/mL	0.832
[2], first compound 0.015 µg/mL, partner 0.3 µg/mL	0.843
[2], first compound 0.015 µg/mL, partner 0.5 µg/mL	0.933
[2], first compound 0.015 µg/mL, partner 1 µg/mL	0.873
[4], first compound 0.0075 µg/mL, partner 0.5 µg/mL	0.785
[4], first compound 0.0075 µg/mL, partner 1 µg/mL	0.81
[4], first compound 0.015 µg/mL, partner 0.5 µg/mL	0.787
[4], first compound 0.015 µg/mL, partner 1 µg/mL	0.793
[4], first compound 0.03 µg/mL, partner 0.5 µg/mL	0.693
[4], first compound 0.03 µg/mL, partner 1 µg/mL	0.734
[4], first compound 0.06 µg/mL, partner 0.0625 µg/mL	0.686
[4], first compound 0.06 µg/mL, partner 0.125 µg/mL	0.695
[4], first compound 0.06 µg/mL, partner 0.25 µg/mL	0.69
[4], first compound 0.12 µg/mL, partner 0.0625 µg/mL	0.462
[4], first compound 0.12 µg/mL, partner 0.125 µg/mL	0.471
[4], first compound 0.12 µg/mL, partner 0.25 µg/mL	0.46

Settings	Bliss interaction score
[5]	-0.0536
[6]	0.065
[7]	-0.0191
[8]	-0.0567
